Results from PubChem BioAssay (NCI).
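Step 1: Grow cells in 96-well plates. Step 2: Expose to compound for 48 hours at 5 concentrations. Step 3: Interpolate endpoints linearly; if unreached, use highest concentration. GI50: concentration for 50% inhibition of growth. At the TGI there is no net growth.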

Key:
Experiment in all cases: NCI tumour cell line growth inhibition, 48 h
SF-539 CNS = tested on: SF-539 CNS
HOP-62 NSCLC = tested on: HOP-62 NSCLC
HCT-116 colon = tested on: HCT-116 colon
OVCAR-4 ovarian = tested on: OVCAR-4 ovarian
OVCAR-8 ovarian = tested on: OVCAR-8 ovarian
SF-295 CNS = tested on: SF-295 CNS
SK-MEL-5 melanoma = tested on: SK-MEL-5 melanoma
NCI-H23 lung = tested on: NCI-H23 lung
MDA-MB-231 breast = tested on: MDA-MB-231 breast
OVCAR-5 ovarian = tested on: OVCAR-5 ovarian

N#Cc1c(N2CCC(O)C2)c2ccccc2n2c1nc1ccccc12 (stereo not drawn)
TGI (SF-539 CNS): > 100 µM | TGI (HOP-62 NSCLC): 46.6 µM | TGI (HCT-116 colon): > 100 µM | TGI (OVCAR-4 ovarian): > 100 µM | TGI (OVCAR-8 ovarian): > 100 µM | TGI (SF-295 CNS): > 100 µM | TGI (SK-MEL-5 melanoma): > 100 µM | TGI (NCI-H23 lung): > 100 µM | TGI (MDA-MB-231 breast): 60.1 µM | TGI (OVCAR-5 ovarian): > 100 µM

CC(C)=CCC/C(C)=C/CC/C(C)=C/CC/C(C)=C/CC/C(C)=C/CC/C(C)=C/CC/C(C)=C/CC/C(C)=C/CC/C(C)=C/CO
TGI (SF-539 CNS): > 100 µM | TGI (HOP-62 NSCLC): > 100 µM | TGI (HCT-116 colon): > 100 µM | TGI (OVCAR-4 ovarian): > 100 µM | TGI (OVCAR-8 ovarian): > 100 µM | TGI (SF-295 CNS): > 100 µM | TGI (SK-MEL-5 melanoma): > 100 µM | TGI (NCI-H23 lung): > 100 µM | TGI (MDA-MB-231 breast): > 100 µM | TGI (OVCAR-5 ovarian): > 100 µM

COc1ccc(CCCNC(=O)c2cc(OC)c(OC)cc2CCO)cc1OC
TGI (SF-539 CNS): > 100 µM | TGI (HOP-62 NSCLC): > 100 µM | TGI (HCT-116 colon): > 100 µM | TGI (OVCAR-4 ovarian): > 100 µM | TGI (OVCAR-8 ovarian): > 100 µM | TGI (SF-295 CNS): > 100 µM | TGI (SK-MEL-5 melanoma): > 100 µM | TGI (NCI-H23 lung): > 100 µM | TGI (MDA-MB-231 breast): > 100 µM | TGI (OVCAR-5 ovarian): > 100 µM

CS(=O)(=O)c1ccc(N=C/C=C/Nc2ccc(S(C)(=O)=O)cc2)cc1
TGI (SF-539 CNS): > 100 µM | TGI (HOP-62 NSCLC): > 100 µM | TGI (HCT-116 colon): > 100 µM | TGI (OVCAR-4 ovarian): > 100 µM | TGI (OVCAR-8 ovarian): > 100 µM | TGI (SF-295 CNS): > 100 µM | TGI (SK-MEL-5 melanoma): > 100 µM | TGI (NCI-H23 lung): > 100 µM | TGI (MDA-MB-231 breast): > 100 µM | TGI (OVCAR-5 ovarian): > 100 µM

COc1ccccc1C1ON=C(c2ccc([N+](=O)[O-])cc2)N1C12CC3CC(CC(C3)C1)C2 (stereo not drawn)
TGI (SF-539 CNS): > 100 µM | TGI (HOP-62 NSCLC): 71.9 µM | TGI (HCT-116 colon): > 100 µM | TGI (OVCAR-4 ovarian): > 100 µM | TGI (OVCAR-8 ovarian): > 100 µM | TGI (SF-295 CNS): > 100 µM | TGI (SK-MEL-5 melanoma): > 100 µM | TGI (NCI-H23 lung): > 100 µM | TGI (MDA-MB-231 breast): > 100 µM | TGI (OVCAR-5 ovarian): > 100 µM

CC(C)O/N=C/c1cc(NC(=S)OC(C)C)ccc1Cl
TGI (SF-539 CNS): > 78.8 µM | TGI (HOP-62 NSCLC): > 70.6 µM | TGI (HCT-116 colon): > 74.3 µM | TGI (OVCAR-4 ovarian): > 88.8 µM | TGI (OVCAR-8 ovarian): > 90.3 µM | TGI (SF-295 CNS): 62.7 µM | TGI (SK-MEL-5 melanoma): > 73.4 µM | TGI (NCI-H23 lung): > 100 µM | TGI (MDA-MB-231 breast): 62 µM | TGI (OVCAR-5 ovarian): > 86.1 µM

O=C(Nc1ccc(-n2ccc3c(NC(=O)c4ccccc4)ncnc32)cc1)Nc1ccc(Cl)c(Cl)c1
GI50 (SF-539 CNS): 1.32 µM | TGI (SF-539 CNS): 10.3 µM | GI50 (HOP-62 NSCLC): 1.85 µM | TGI (HOP-62 NSCLC): 7.44 µM | GI50 (HCT-116 colon): 1.66 µM | TGI (HCT-116 colon): 5.06 µM | GI50 (OVCAR-4 ovarian): 0.887 µM | TGI (OVCAR-4 ovarian): 1.8 µM | GI50 (OVCAR-8 ovarian): 2.38 µM | TGI (OVCAR-8 ovarian): 8.6 µM | GI50 (SF-295 CNS): 4.5 µM | TGI (SF-295 CNS): 14.2 µM | GI50 (SK-MEL-5 melanoma): 7.05 µM | TGI (SK-MEL-5 melanoma): 15.1 µM | GI50 (NCI-H23 lung): 6.33 µM | TGI (NCI-H23 lung): 22.3 µM | GI50 (MDA-MB-231 breast): 4.11 µM | TGI (MDA-MB-231 breast): 11 µM | GI50 (OVCAR-5 ovarian): 5.62 µM | TGI (OVCAR-5 ovarian): 13.2 µM

CCOC(=O)C1c2[nH]c3ccccc3c2CCN1C(=O)c1ccc(OC)o1 (stereo not drawn)
TGI (SF-539 CNS): > 10 µM | TGI (HOP-62 NSCLC): > 10 µM | TGI (OVCAR-4 ovarian): > 10 µM | TGI (OVCAR-8 ovarian): > 10 µM | TGI (SF-295 CNS): > 10 µM | TGI (SK-MEL-5 melanoma): > 10 µM | TGI (NCI-H23 lung): > 10 µM | TGI (MDA-MB-231 breast): > 10 µM | TGI (OVCAR-5 ovarian): > 10 µM

COc1cc(C2c3cc4c(cc3OC(NNS(=O)(=O)c3ccc(C)cc3)C2C)OCO4)cc(OC)c1O (stereo not drawn)
TGI (SF-539 CNS): 31.4 µM | TGI (HOP-62 NSCLC): 39.4 µM | TGI (HCT-116 colon): > 100 µM | TGI (OVCAR-4 ovarian): 40.1 µM | TGI (OVCAR-8 ovarian): > 100 µM | TGI (SF-295 CNS): 17.7 µM | TGI (SK-MEL-5 melanoma): 25 µM | TGI (NCI-H23 lung): 76.4 µM | TGI (MDA-MB-231 breast): 57.5 µM | TGI (OVCAR-5 ovarian): > 100 µM

NC(=O)Cc1nc2c(N)ncnc2n1C1OC(CO)C(O)C1O (stereo not drawn)
TGI (SF-539 CNS): > 100 µM | TGI (HOP-62 NSCLC): > 100 µM | TGI (HCT-116 colon): > 100 µM | TGI (OVCAR-4 ovarian): > 100 µM | TGI (OVCAR-8 ovarian): > 100 µM | TGI (SF-295 CNS): > 100 µM | TGI (SK-MEL-5 melanoma): > 100 µM | TGI (NCI-H23 lung): > 100 µM | TGI (MDA-MB-231 breast): > 100 µM
